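Results reflect a 48-hour exposure of cells in 96-well plates to compound at five concentrations. At the GI50, growth is halved. TGI denotes the concentration required for complete inhibition of growth.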
Legend:
Test in all cases: inhibition of tumour cell growth, NCI panel, 48 h
SR leukemia = tested on: SR leukemia
NCI-H23 lung = tested on: NCI-H23 lung
HS 578T breast = tested on: HS 578T breast
BT-549 breast = tested on: BT-549 breast
U251 CNS = tested on: U251 CNS
OVCAR-8 ovarian = tested on: OVCAR-8 ovarian
UACC-62 melanoma = tested on: UACC-62 melanoma
OVCAR-4 ovarian = tested on: OVCAR-4 ovarian
PC-3 prostate = tested on: PC-3 prostate
TK-10 renal = tested on: TK-10 renal
UO-31 renal = tested on: UO-31 renal
OVCAR-3 ovarian = tested on: OVCAR-3 ovarian
COLO 205 colon = tested on: COLO 205 colon
K-562 leukemia = tested on: K-562 leukemia
MALME-3M melanoma = tested on: MALME-3M melanoma
HOP-62 NSCLC = tested on: HOP-62 NSCLC
MDA-MB-231 breast = tested on: MDA-MB-231 breast
OVCAR-5 ovarian = tested on: OVCAR-5 ovarian
A498 renal = tested on: A498 renal
DU-145 prostate = tested on: DU-145 prostate
HL-60(TB) leukemia = tested on: HL-60(TB) leukemia
M14 melanoma = tested on: M14 melanoma
HT29 colon = tested on: HT29 colon
HOP-92 NSCLC = tested on: HOP-92 NSCLC
SK-MEL-2 melanoma = tested on: SK-MEL-2 melanoma
EKVX NSCLC = tested on: EKVX NSCLC
UACC-257 melanoma = tested on: UACC-257 melanoma
HCC-2998 colon = tested on: HCC-2998 colon
CCRF-CEM leukemia = tested on: CCRF-CEM leukemia
KM12 colon = tested on: KM12 colon
MCF7 breast = tested on: MCF7 breast
SW-620 colon = tested on: SW-620 colon
ACHN renal = tested on: ACHN renal
SK-MEL-5 melanoma = tested on: SK-MEL-5 melanoma
786-0 renal = tested on: 786-0 renal
T-47D breast = tested on: T-47D breast
SNB-75 CNS = tested on: SNB-75 CNS
NCI-H522 lung = tested on: NCI-H522 lung
SNB-19 CNS = tested on: SNB-19 CNS
SF-539 CNS = tested on: SF-539 CNS
MDA-MB-435 = tested on: MDA-MB-435
LOX IMVI melanoma = tested on: LOX IMVI melanoma
HCT-15 colon = tested on: HCT-15 colon
RXF 393 renal = tested on: RXF 393 renal
SN12C renal = tested on: SN12C renal
NCI-H226 lung = tested on: NCI-H226 lung
SK-OV-3 ovarian = tested on: SK-OV-3 ovarian
IGROV1 ovarian = tested on: IGROV1 ovarian
SK-MEL-28 melanoma = tested on: SK-MEL-28 melanoma
CAKI-1 renal = tested on: CAKI-1 renal
RPMI-8226 leukemia = tested on: RPMI-8226 leukemia
MOLT-4 leukemia = tested on: MOLT-4 leukemia
SF-268 CNS = tested on: SF-268 CNS
SF-295 CNS = tested on: SF-295 CNS
HCT-116 colon = tested on: HCT-116 colon
NCI-H460 lung = tested on: NCI-H460 lung
NCI/ADR-RES ovarian = tested on: NCI/ADR-RES ovarian

CC(=O)[O][Hg][c]1ccccc1
GI50 (SR leukemia): 0.143 µM | TGI (SR leukemia): 0.537 µM | GI50 (NCI-H23 lung): 0.682 µM | TGI (NCI-H23 lung): 3.46 µM | GI50 (HS 578T breast): 0.289 µM | TGI (HS 578T breast): 1.67 µM | GI50 (BT-549 breast): 0.453 µM | TGI (BT-549 breast): 1.66 µM | GI50 (U251 CNS): 0.453 µM | TGI (U251 CNS): 1.75 µM | GI50 (OVCAR-8 ovarian): 0.921 µM | TGI (OVCAR-8 ovarian): 3.96 µM | GI50 (UACC-62 melanoma): 0.587 µM | TGI (UACC-62 melanoma): 1.91 µM | GI50 (OVCAR-4 ovarian): 0.43 µM | TGI (OVCAR-4 ovarian): 2.24 µM | GI50 (PC-3 prostate): 1.41 µM | TGI (PC-3 prostate): 3.21 µM | GI50 (TK-10 renal): 0.512 µM | TGI (TK-10 renal): 1.36 µM | GI50 (UO-31 renal): 1.23 µM | TGI (UO-31 renal): 2.54 µM | GI50 (OVCAR-3 ovarian): 0.147 µM | TGI (OVCAR-3 ovarian): 0.295 µM | GI50 (COLO 205 colon): 0.65 µM | TGI (COLO 205 colon): 1.67 µM | GI50 (K-562 leukemia): 0.294 µM | TGI (K-562 leukemia): 1.31 µM | GI50 (MALME-3M melanoma): 0.506 µM | TGI (MALME-3M melanoma): 1.62 µM | GI50 (HOP-62 NSCLC): 1.62 µM | TGI (HOP-62 NSCLC): 3.11 µM | GI50 (MDA-MB-231 breast): 0.732 µM | TGI (MDA-MB-231 breast): 2.09 µM | GI50 (OVCAR-5 ovarian): 2.19 µM | TGI (OVCAR-5 ovarian): 3.84 µM | GI50 (A498 renal): 1.11 µM | TGI (A498 renal): 2.37 µM | GI50 (DU-145 prostate): 1.25 µM | TGI (DU-145 prostate): 2.72 µM | GI50 (HL-60(TB) leukemia): 0.201 µM | TGI (HL-60(TB) leukemia): 0.487 µM | GI50 (M14 melanoma): 0.283 µM | TGI (M14 melanoma): 1.06 µM | GI50 (HT29 colon): 0.626 µM | TGI (HT29 colon): 2.46 µM | GI50 (HOP-92 NSCLC): 0.299 µM | TGI (HOP-92 NSCLC): 0.92 µM | GI50 (SK-MEL-2 melanoma): 0.401 µM | TGI (SK-MEL-2 melanoma): 1.27 µM | GI50 (EKVX NSCLC): 1.46 µM | TGI (EKVX NSCLC): 3.98 µM | GI50 (UACC-257 melanoma): 0.908 µM | TGI (UACC-257 melanoma): 2.18 µM | GI50 (HCC-2998 colon): 1.64 µM | TGI (HCC-2998 colon): 3.11 µM | GI50 (CCRF-CEM leukemia): 0.147 µM | TGI (CCRF-CEM leukemia): 0.494 µM | GI50 (KM12 colon): 1.6 µM | TGI (KM12 colon): 3.04 µM | GI50 (MCF7 breast): 0.197 µM | TGI (MCF7 breast): 0.684 µM | GI50 (SW-620 colon): 0.215 µM | TGI (SW-620 colon): 0.492 µM | GI50 (ACHN renal): 1.23 µM | TGI (ACHN renal): 2.61 µM | GI50 (SK-MEL-5 melanoma): 0.472 µM | TGI (SK-MEL-5 melanoma): 1.82 µM | GI50 (786-0 renal): 1.43 µM | TGI (786-0 renal): 2.82 µM | GI50 (T-47D breast): 0.163 µM | TGI (T-47D breast): 0.382 µM | GI50 (SNB-75 CNS): 0.771 µM | TGI (SNB-75 CNS): 2.2 µM | GI50 (NCI-H522 lung): 0.138 µM | TGI (NCI-H522 lung): 0.292 µM | GI50 (SNB-19 CNS): 1.46 µM | TGI (SNB-19 CNS): 3.05 µM | GI50 (SF-539 CNS): 1.42 µM | TGI (SF-539 CNS): 2.83 µM | GI50 (MDA-MB-435): 0.808 µM | TGI (MDA-MB-435): 2.19 µM | GI50 (LOX IMVI melanoma): 0.227 µM | TGI (LOX IMVI melanoma): 0.696 µM | GI50 (HCT-15 colon): 0.277 µM | TGI (HCT-15 colon): 0.877 µM | GI50 (RXF 393 renal): 0.234 µM | TGI (RXF 393 renal): 0.797 µM | GI50 (SN12C renal): 0.234 µM | TGI (SN12C renal): 0.644 µM | GI50 (NCI-H226 lung): 1.12 µM | TGI (NCI-H226 lung): 4.81 µM | GI50 (SK-OV-3 ovarian): 1.37 µM | TGI (SK-OV-3 ovarian): 2.68 µM | GI50 (IGROV1 ovarian): 0.295 µM | TGI (IGROV1 ovarian): 0.934 µM | GI50 (SK-MEL-28 melanoma): 0.383 µM | TGI (SK-MEL-28 melanoma): 1.47 µM | GI50 (CAKI-1 renal): 0.964 µM | TGI (CAKI-1 renal): 2.89 µM | GI50 (RPMI-8226 leukemia): 0.283 µM | TGI (RPMI-8226 leukemia): 1.3 µM | GI50 (MOLT-4 leukemia): 0.19 µM | TGI (MOLT-4 leukemia): 0.551 µM | GI50 (SF-268 CNS): 1.14 µM | TGI (SF-268 CNS): 2.64 µM | GI50 (SF-295 CNS): 1.61 µM | TGI (SF-295 CNS): 3.57 µM | GI50 (HCT-116 colon): 0.264 µM | TGI (HCT-116 colon): 0.667 µM | GI50 (NCI-H460 lung): 0.934 µM | TGI (NCI-H460 lung): 3.82 µM | GI50 (NCI/ADR-RES ovarian): 1.7 µM | TGI (NCI/ADR-RES ovarian): 5.74 µM

— PubChem BioAssay (NCI)
